Earlier results as cited in EP2085120A1, “The use of substances for the treatment of central or peripheral insulin receptor impairment and insulin resistance” (Merz Pharma GmbH & Co. KGaA, priority 2008, dated 2009).

Tested on: cultured hippocampal and cortical neurons
Conditions: cultured hippocampal and cortical neurons pretreated with ADDLs or ADDL/glutamate; addition of an NMDA receptor antagonist

CC12CC3CC(C)(C1)CC(N)(C3)C2 [memantine]
ADDL and glutamate-induced decreased insulin sensitivity: reversible
